From patent US5494901A, “Topical compositions for the eye comprising a β-cyclodextrin derivative and a therapeutic agent” (priority 1993, dated 1996)
≈ marks a conversion by molar mass, not a printed value. Counter-ions that a name gives are not always drawn. Like-named read-outs stand apart in the source and are kept apart here.

How the values were obtained:
[1] = Palmitic acid in centrifuged fractions of 2-hydroxypropyl-β-cyclodextrin solution in D2O, by GLC (Example 7); assay type: physicochemical; conditions: Wacker HPBCD in D2O, 100,000× g 3 hours
Experimental: 2.25 g of Wacker 2-hydroxypropyl-β-cyclodextrin (Source C of Example 3) was dissolved in D2 O to give a final volume of 5.0 ml. 100 mg of palmitic acid was added to the solution and the mixture placed in an ultrasonic water bath at 60° C. for several hours, after which it was brought to room temperature and filtered through an 0.22 mμ millipore filter to obtain a clear solution. 3.0 ml of the solution was centrifuged at 100,000× g for 3 hours in a Beckman TL-100 centrifuge. Following centrifugation, aliquots of approximately 1.0 ml were removed from the tube to give upper, middle and lower fractions. A 0.1 ml aliquot from each fraction was pipetted into a tube and 1 mg of cholesterol added as an internal standard. Each tube was then partitioned between ethyl acetate and water to extract all of the palmitic acid and internal standard. The amount of palmitic acid in each aliquot was then determined by GLC using a flame detector.

[2] = Maximum solubility and guest/host molar ratios in 45% hydroxypropyl-β-cyclodextrin (Example 6); assay type: physicochemical; conditions: for solubility: 45% hpbcd
Experimental: 45% (w/v) aqueous solutions of 2-hydroxypropyl-β-cyclodextrin using either source A or B (see Example 3) were prepared, and the maximum solubilities of phenoltetrabromphthalein and of cholesterol were determined per 5.0 ml of solution using standard techniques. Phenoltetrabromphthalein concentration was determined spectrophotometrically at 580 mμ. Cholesterol concentration was determined by both GLC and by liquid scintillation counting using cholesterol of known specific activity. The data are shown below, along with a summary of data from other examples.

intraocular pressure [3] = assay: Intraocular pressure after topical acetazolamide preparations, Perkins applanation tonometer (Example 2); assay type: in vivo, New Zealand white rabbits; conditions: 1% Na-acetazolamide in 0.9% NaCl, FIG. 1
Experimental: Solutions of 1% acetazolamide in 45% HPBCD and 1% Na-acetazolamide in 0.9% NaCl were applied to paired right and left eyes of 10 New Zealand white rabbits (the HPBCD is Type B of Example 3). Intraocular pressure was measured with a Perkins applanation tonometer at hourly intervals until all pressures returned to baseline. […] As a further control, the acetazolamide/HPBCD preparation was compared with 45% HPBCD alone (control).

[4] = Maximum solubility of acetazolamide with commercial HPBCD preparations (Example 3); assay type: physicochemical
Description: The solubility of the active agent can be determined by any of the conventional methods available. For example, solutions of the agent, prepared with and without a β-cyclodextrin derivative, can be filtered (e.g., using a 0.22 or 0.45 μm membrane filter) to eliminate undissolved agent, and subjected to chromatography (e.g., reverse-phase HPLC) to determine the concentration of agent present in the solution.
In order to assess the efficiency of 3 different commercially available preparations of HPBCD, the maximum solubility of acetazolamide (maximum solubility in water: 0.1%) was determined for each. The three sources of HPBCD were (A) Roquette (RE No. 446601), (B) American Maize ("Encapsin"), and (C) Wacker Chemical (BetaW7, HP0.9).

[5] = Maximum solubility and guest/host molar ratios in 45% hydroxypropyl-β-cyclodextrin (Example 6); assay type: physicochemical; conditions: source C (Wacker)
[6] = system: intraocular pressure of the normal rabbit eye; conditions: topical, Silvestrini; cited from earlier work
[7] = system: anterior chamber of the eye; assay: Fluorescence in anterior chamber after topical Na-Fluorescein, slit lamp biomicroscope; assay type: in vivo, New Zealand white rabbit; conditions: 2% Na-Fluorescein in 0.9% saline; at one hour; rabbit
Experimental: Solutions of 2% Na-Fluorescein were prepared in 0.9% Saline, 4.5% HPBCD, and 45% HPBCD (the HPBCD is Type B of Example 3). Each solution was applied to the eye of a New Zealand white rabbit and observed for a period of one hour. The anterior chamber of the eye was examined with a standard blue light source on a slit lamp biomicroscope.

[8] = cited from earlier work
[9] = with β-cyclodextrin at either 3% or 1.5%; topical; Grove et al.; cited from earlier work
intraocular pressure [10] = assay: Intraocular pressure after 1% methazolamide in 45% HPBCD, applanation tonometry (Example 5); assay type: in vivo, New Zealand white rabbits; conditions: dissolved in HPBCD
Experimental: Solutions of 1% methazolamide in 45% HPBCD and the HPBCD alone (control) were applied to paired right and left eyes of New Zealand white rabbits. Intraocular pressure was measured by applanation tonometry until pressures returned to baseline.

[11] = source A (Roquette), read-out: maximum solubility
[12] = source B (A. Maize), read-out: maximum solubility

In the case of `CCCCCCCCCCCCCCCC(=O)O` [Palmitic acid, palmitic acid], the “Palmitic acid in fraction” value ([1]; Lower fraction) is reported as 23.4 μg/0.1 ml, the “Palmitic acid in fraction” value ([1]; Middle fraction) is reported as 34.0 μg/0.1 ml and the “Palmitic acid in fraction” value ([1]; Upper fraction) is reported as 41.0 μg/0.1 ml.

In the case of `C[C@@H](CO)CCC[C@@H](C)[C@H]1CC[C@H]2[C@@H]3CC=C4C[C@@H](O)CC[C@]4(C)[C@H]3CC[C@]12C` [26-hydroxy cholesterol], the guest/host molar ratio [2] is reported as “.16” and the solubility ([2]; maximum solubility) is reported as 20000 µg/mL.

In the case of `CC(=O)Nc1nnc(S(N)(=O)=O)s1` [Na-acetazolamide], the “lowering of intraocular pressure” value (intraocular pressure [3]) is reported as “only a transient, non-statistically significant lowering of intraocular pressure”.

In the case of `CC(=O)Nc1nnc(S(N)(=O)=O)s1` [acetazolamide], the guest/host molar ratio ([2]; 45% HPBCD, source B (A. Maize)) is reported as 0.31, the solubility [2, 11] is reported as over 5000 µg/mL and the solubility [2, 12] is reported as 20000 µg/mL. The solubility ([4]; hpbcd solution, HPBCD source A, Roquette (RE No. 446601), read-out: maximum solubility) was 1000 µg/mL (≈ 4.5 mM), the solubility ([4]; hpbcd solution, HPBCD source B, American Maize ("Encapsin"), read-out: maximum solubility) was 10000 µg/mL (≈ 45 mM) and the solubility ([4]; hpbcd solution, HPBCD source C, Wacker Chemical (BetaW7, HP0.9), read-out: maximum solubility) was 18000 µg/mL (≈ 81 mM). It also gave a solubility ([4]; water, read-out: maximum solubility in water) of 1000 µg/mL (≈ 4.5 mM), a guest/host molar ratio ([5]; 45% HPBCD) of 0.31 and a solubility ([5]; 45% hpbcd) of 20000 µg/mL.

For `CC(=O)Nc1nnc(S(N)(=O)=O)s1` [disodium salts of acetazolamide], the “lowering of intraocular pressure” value [6] is listed as “can be used to lower the intraocular pressure of the normal rabbit eye”.

With `O=C1OC2(c3ccc(O)cc3Oc3cc(O)ccc32)c2ccccc21` [Na-Fluorescein] the “fluorescence seen in the eye” value [7] was “considerable fluorescence”.

In the case of `CNC[C@H](O)c1ccc(O)c(O)c1` [epinephrine], the “sensitivity developed by patients” value ([8]; topical, used for a year or longer) is given as “frequently develop sensitivity”.

In the case of `CCN[C@H]1C[C@H](C)S(=O)(=O)c2sc(S(N)(=O)=O)cc21` [L-671152], the “ocular bioavailability compared to inhibitor administered alone” value [9] is given as “about 50%”.

For `CNCC(O)c1ccc(OC(=O)C(C)(C)C)c(OC(=O)C(C)(C)C)c1` (centres unmarked) [dipiviphrine], the “sensitivity developed by patients” value ([8]; human, in vivo) is given as “frequently develop sensitivity”.

In the case of `CC(C)CCC[C@@H](C)[C@H]1CC[C@H]2[C@@H]3CC=C4C[C@@H](O)CC[C@]4(C)[C@H]3CC[C@]12C` [Cholesterol, cholesterol], the guest/host molar ratio ([2]; 45% HPBCD, source A (Roquette)) is reported as “.0015”, the guest/host molar ratio ([2]; 45% HPBCD, source B (A. Maize)) is reported as “.038” and the solubility [2, 11] is reported as 80 µg/mL. It also gave a solubility [2, 12] of 4300 µg/mL.

In the case of `CC(=O)/N=c1/sc(S(N)(=O)=O)nn1C` [methazolamide], the “duration of effect relative to acetazolamide” value (intraocular pressure [10]) is reported as “longer duration of effect than does acetazolamide” and the “potency relative to acetazolamide” value (intraocular pressure [10]) is reported as “more potent”.
